From patent publication US8486935B2, “Xinafoate salt of N4-(2,2-difluoro-4H-benzo[1,4]oxazin-3-one)-6-yl]-5-fluoro-N2-[3-(methylaminocarbonylmethyleneoxy)phenyl]2,4-pyrimidinediamine” (Rigel Pharmaceuticals, Inc., priority 2007, dated 2013)
Structures can show the parent of a compound that is named as a salt.

Columns and labels:
Format in all cases: physicochemical
[1] = Solvation/hydration by thermogravimetric analysis (TGA); settings: for hydration or solvation: TGA, ambient to 300° C.
Description: Solvation/Hydration was assessed by thermogravimetric analysis (TGA) using a TA Instruments Hi-Res TGA 2950 instrument measuring the weight loss of a 8.8 mg sample in an open platinum pan. The sample was heated at 20° C./min from ambient to 300° C. utilizing a nitrogen furnace purge gas.

[2] = Hygroscopicity by dynamic vapour sorption
Description: Hygroscopicity was assessed using dynamic vapour sorption equipment (Surface Measurement Systems Ltd, model DVS-1). The analysis was conducted at 30° C. with a nitrogen gas flow of 200 cc/min. Water sorption and desorption were determined in the range 0 to 90% relative humidity (RH) using 15% RH intervals. Exposure was for a minimum of 2 hours at each humidity or until the rate of weight change was less than 0.0003%/minute (averaged over 10 minutes). Sample weight was 12.6 mg. The sample was weighed using a CAHN D-200, seven place digital recording balance, which is an integral part of the equipment.

[3] = Solid form after micronisation using jet milling; settings: following micronisation using jet milling
[4] = Solid state stability and excipient compatibility of the lactose monohydrate blend; settings: for % main band remaining versus control: micronised, 1:100 blend with lactose monohydrate, control 5° C./0% humidity
Description: In order to test for solid state stability and excipient compatibility, a sample of the xinafoate salt was micronised by jet milling (particle size: D10=0.24 μm, D50=1.15 μm, D90=4.29 μm) and the resulting powder was blended at a 1:100 weight ratio with lactose monohydrate (Respitose grade SV008). Samples were stored for 12 weeks at 25° C./60% relative humidity and 40° C./75% relative humidity and assayed for remaining drug content and impurities at 4, 8 and 12 weeks. A control sample was stored at 5° C./0% humidity.

[5] = lactose blend, up to 12 weeks at 25° C./60% RH and 40° C./75% RH

Row | SMILES | hydration or solvation [1] | solvate formation ([1]; nine solvents tested) | hygroscopicity ([2]; 0 to 90% RH, 30° C.) | water sorption ([2]; 90% RH, 30° C., before micronisation) | water sorption ([2]; 90% relative humidity, following micronisation using jet milling) | change in degree of crystallinity [3] | change in solid form [3] | % main band remaining versus control ([4]; 25° C./60% RH, 4 weeks) | % main band remaining versus control ([4]; 25° C./60% RH, 8 weeks) | % main band remaining versus control ([4]; 25° C./60% RH, 12 weeks) | % main band remaining versus control ([4]; 40° C./75% RH, 4 weeks) | % main band remaining versus control ([4]; 40° C./75% RH, 8 weeks) | % main band remaining versus control ([4]; 40° C./75% RH, 12 weeks) | change in physical form during storage [4, 5] | degradation during storage [4, 5]
1 | CNC(=O)COc1cccc(Nc2ncc(F)c(Nc3ccc4c(c3)NC(=O)C(F)(F)O4)n2)c1 [free base, N4-[(2,2-difluoro-4H-benzo[1,4]oxazin-3-one)-6-yl]-5-fluoro-N2-[3-(methylaminocarbonylmethyleneoxy)phenyl]-2,4-pyrimidinediamine] | hydrates to form a hemihydrate | formed a different solvated form in each of nine solvents tested |  |  |  |  |  |  |  |  |  |  |  |  | 
2 | CNC(=O)COc1cccc(Nc2ncc(F)c(Nc3ccc4c(c3)NC(=O)C(F)(F)O4)n2)c1 [xinafoate salt, xinafoate salt of N4-[(2,2-difluoro-4H-benzo[1,4]oxazin-3-one)-6-yl]-5-fluoro-N2-[3-(methylaminocarbonylmethyleneoxy)phenyl]-2,4-pyrimidinediamine] | does not show any hydration or salvation |  | essentially non-hygroscopic | 0.6% | 0.9% | negligible decrease in the degree of crystallinity | no change in solid form | 100.2% | 99.9% | 100.1% | 100.4% | 100.0% | 100.0% | no change in physical form was detected | no significant degradation was observed
